Results on 20 compounds are retold here after US9598424B2 (Takeda Pharmaceutical Company Limited, priority 2014, dated 2017).

For experiment [1], the target named is T1, TBK1 (Homo sapiens, UniProt Q9UHD2).
T1 construct: host or cells: RA1-ISRE beta-lactamase reporter cells
T1 sequence (Q9UHD2 1-729): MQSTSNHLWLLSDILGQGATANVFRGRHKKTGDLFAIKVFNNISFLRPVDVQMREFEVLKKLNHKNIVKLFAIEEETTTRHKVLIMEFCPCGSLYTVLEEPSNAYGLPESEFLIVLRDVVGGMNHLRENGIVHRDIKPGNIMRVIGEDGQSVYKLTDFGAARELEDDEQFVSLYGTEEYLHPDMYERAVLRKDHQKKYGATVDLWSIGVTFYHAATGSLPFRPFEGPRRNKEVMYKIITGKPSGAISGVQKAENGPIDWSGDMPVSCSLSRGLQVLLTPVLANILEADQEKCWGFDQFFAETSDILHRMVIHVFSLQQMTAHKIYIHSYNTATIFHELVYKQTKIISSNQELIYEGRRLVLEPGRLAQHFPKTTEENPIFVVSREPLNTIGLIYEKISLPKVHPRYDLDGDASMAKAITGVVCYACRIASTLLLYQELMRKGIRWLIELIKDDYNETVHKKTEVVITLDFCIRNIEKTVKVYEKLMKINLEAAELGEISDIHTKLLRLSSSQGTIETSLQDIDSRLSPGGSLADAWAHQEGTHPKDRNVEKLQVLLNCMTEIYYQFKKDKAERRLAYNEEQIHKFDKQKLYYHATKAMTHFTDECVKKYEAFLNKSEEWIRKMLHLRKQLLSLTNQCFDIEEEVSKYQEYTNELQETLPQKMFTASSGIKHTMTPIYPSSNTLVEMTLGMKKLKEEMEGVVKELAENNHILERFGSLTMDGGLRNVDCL
As to the kind of experiment: Inhibition of TBK1 in Cells (TLR3 driven ISRE β-lactamase reporter assay). The conditions noted are these: poly IC-LMW stimulation 16 hrs; -log(EC50), EC50 molar; read-out: Inhibition of TBK1 in cells pEC50 (EC) (converted). Format: cell-based. On the procedure: TBK1 inhibition is determined using a TLR3 driven RA1-ISRE β-lacatamase reporter assay (Life Technologies). In the assay 50,000 cells/well are plated in black clear bottom 384 well plate. Each test compound is prepared in DMSO using 2.5-fold serial dilutions for 11 data points, which are then added to the media. Cells are stimulated with 0.15 mg/ml poly IC-LMW (Invivogen) for 16 hrs. Reporter activity is detected using the LiveBLAzer-FRET B/G CCF4-AM substrate (Life Technologies) and the plate is read using the Spectramax M5 instrument. Corresponding EC50 values are calculated by non-linear curve fitting of the compound concentrations and percent of inhibition to the standard EC50 equation and reported as pEC50, i.e., −log(EC50), where EC50 is the molar concentration.

In experiment [2] the target is T2, Full length human TBK1 (Homo sapiens, UniProt Q9UHD2).
T2 construct: Full length human TBK1 with an N-terminal His-tag; His-tag (N); made in house; host or cells: Sf9 insect cells (baculovirus, pFastBac1)
T2 sequence (Q9UHD2 1-729): T1 sequence (Q9UHD2 1-729)
As to the kind of experiment: Inhibition of TBK1 Enzyme (Caliper microfluidic assay). Format: biochemical. The conditions noted are these: 25 μM ATP, 60 min at RT; -log(IC50), IC50 molar; read-out: TBK1 Inhibition (pIC50) (converted). On the procedure:
Full length human TBK1 with an N-terminal His-tag was cloned into the pFastBacl vector and was transfected into Sf9 cells. 72 hours later the virus was harvested and amplified through two additional rounds of infections. Then 400 ml of the resulting virus stock was used to infect 10L of Sf9 cells at a density of 2×10^6 cells/ml. Cell pellets were harvested 48 hours post infection and were lysed by freeze-thaw, homogenization and sonication in binding buffer (25 mM Tris pH7.6, 1 M NaCl, 10 mM imidazole, 0.5 mM TCEP) plus 0.1% Triton X-100 and complete protease inhibitor cocktail. The lysate was spun and the supernatant was purified with a HisTrap FF crude and a Superdex 200 pg column.
TBK1 inhibition is determined using a 384 well plate format in buffer containing 20 mM Hepes, pH 7.4, 10 mM MgCl2, 1 mM EDTA, 0.01% Brij-L23, 1 mM DTT. Each test compound is prepared in DMSO using 2.5-fold serial dilutions for 11 data points, which are added to the buffer so that each dilution contains 1% DMSO. To each well is added 2 μL of 1 μm 5FAM-DRHDSGLDSMKDE-NH2 (in buffer), 2 μL of diluted test compound (1% DMSO in buffer), and 5 μL of 3 nM TBK1 and 25 μM ATP (in buffer). The reaction mixture is incubated at RT for 60 min, and quenched by adding 20 mM Hepes, pH 7.4, 10 mM MgCl2, 1 mM EDTA, 0.01% Brij-L23, 1 mM DTT+25 mM EDTA. To quantify the fluorescent-labeled substrate and product following reaction, the test plate is loaded on a Caliper LC-3000, which measures percent of conversion by microfluidic-based separation. Corresponding IC50 values are calculated by non-linear curve fitting of the compound concentrations and percent of inhibition to the standard IC50 equation and reported as pIC50, i.e., −log(IC50), where IC50 is the molar concentration.

Regarding `O=C(NCC(F)F)c1nc(-c2ccc3nc(NC(=O)C4CC4)cn3c2)c[nH]1` [Example 12, 4-{2-cyclopropaneamidoimidazo[1,2-a]pyridin-6-yl}-N-(2,2-difluoroethyl)-1H-imidazole-2-carboxamide], the EC50 in experiment [1] was 955 nM. Further, the IC50 in experiment [2] was 20 nM.

On to `O=C(Nc1cn2cc(-c3csc(C(=O)N4CCC(F)(F)C4)c3)ccc2n1)C1CC1` [Example 74, N-(6-(5-(3,3-difluoropyrrolidine-1-carbonyl)thiophen-3-yl)imidazo[1,2-a]pyridin-2-yl)cyclopropanecarboxamide], for which the EC50 in experiment [1] is 1350 nM. Besides, in experiment [2], the IC50 was 31.6 nM.

On to `O=C(N[C@H]1COC[C@H]1O)c1nc(-c2ccc3nc(NC(=O)C4CC4)cn3c2)cs1` [Example 108, 4-(2-(cyclopropanecarboxamido)imidazo[1,2-a]pyridin-6-yl)-N-((3S,4S)-4-hydroxytetrahydrofuran-3-yl)thiazole-2-carboxamide], for which the EC50 in experiment [1] is 4370 nM. In addition, the IC50 in experiment [2] is 79.4 nM.

As to `O=C(NCCC(F)(F)F)c1nc(-c2ccc3nc(NC(=O)C4CC4)cn3c2)cs1` [Example 92, 4-(2-(cyclopropanecarboxamido)imidazo[1,2-a]pyridin-6-yl)-N-(3,3,3-trifluoropropyl)thiazole-2-carboxamide], the EC50 in experiment [1] was 1120 nM. Besides, in experiment [2], the IC50 is 50.1 nM.

Turning to `N#CC1CN(C(=O)c2nc(-c3ccc4nc(NC(=O)C5CC5)cn4c3)cs2)C1` [Example 102, N-(6-(2-(3-cyanoazetidine-1-carbonyl)thiazol-4-yl)imidazo[1,2-a]pyridin-2-yl)cyclopropanecarboxamide], the EC50 in experiment [1] was 776 nM. Besides, the IC50 in experiment [2] is 200 nM.

`O=C(NCC(F)(F)F)c1nc(-c2ccc3nc(NC(=O)C4CC4)cn3n2)cs1` [Example 21, 4-(2-(cyclopropanecarboxamido)imidazo[1,2-b]pyridazin-6-yl)-N-(2,2,2-trifluoroethyl)thiazole-2-carboxamide]: the EC50 in experiment [1] was 3390 nM. In experiment [2], the IC50 was 50.1 nM.

Take `O=C(NCC(F)F)c1ccn(-c2ccc3nc(NC(=O)C4CC4)cn3c2)n1` [Example 35, 1-(2-(cyclopropanecarboxamido)imidazo[1,2-a]pyridin-6-yl)-N-(2,2-difluoroethyl)-1H-pyrazole-3-carboxamide]: the EC50 in experiment [1] was 5250 nM. Further, in experiment [2], the IC50 was 79.4 nM.

For the compound `O=C(NC1COC1)c1nc(-c2ccc3nc(NC(=O)C4CC4)cn3c2)cs1` [Example 122, 4-(2-(cyclopropanecarboxamido)imidazo[1,2-a]pyridin-6-yl)-N-(oxetan-3-yl)thiazole-2-carboxamide], in experiment [1], the EC50 is 3720 nM. In addition, the IC50 in experiment [2] is 126 nM.

Regarding `O=C(NCC1CC1)c1cc(-c2ccc3nc(NC(=O)C4CC4)cn3c2)cs1` [Example 65], the EC50 in experiment [1] is 676 nM. Also, the IC50 in experiment [2] was 20 nM.

Turning to `CC1CCN(C(=O)c2nc(-c3ccc4nc(NC(=O)C5CC5)cn4c3)cs2)C1` (stereo not shown) [Example 103, N-(6-(2-(3-methylpyrrolidine-1-carbonyl)thiazol-4-yl)imidazo[1,2-a]pyridin-2-yl)cyclopropanecarboxamide], the EC50 in experiment [1] is 794 nM. For the same compound, in experiment [2], the IC50 is 79.4 nM.

Regarding `O=C(NC1CCOC1)c1cc(-c2ccc3nc(NC(=O)C4CC4)cn3c2)cs1` (stereo not shown) [Example 70, 4-(2-(cyclopropanecarboxamido)imidazo[1,2-a]pyridin-6-yl)-N-(tetrahydrofuran-3-yl)thiophene-2-carboxamide], the EC50 in experiment [1] was 891 nM. Moreover, in experiment [2], the IC50 was 31.6 nM.

Take `CN(CC(F)(F)F)C(=O)c1cc(-c2ccc3nc(NC(=O)C4CC4)cn3c2)n[nH]1` [Example 106, 3-(2-(cyclopropanecarboxamido)imidazo[1,2-a]pyridin-6-yl)-N-methyl-N-(2,2,2-trifluoroethyl)-1H-pyrazole-5-carboxamide]: the EC50 in experiment [1] is 589 nM. For the same compound, the IC50 in experiment [2] was 31.6 nM.

For the compound `CC(NC(=O)c1nc(-c2ccc3nc(NC(=O)C4CC4)cn3c2)c[nH]1)C(F)(F)F` (stereo not shown) [Example 24, 4-(2-(cyclopropanecarboxamido)imidazo[1,2-a]pyridin-6-yl)-N-(1,1,1-trifluoropropan-2-yl)-1H-imidazole-2-carboxamide], the EC50 in experiment [1] is 468 nM. For the same compound, the IC50 in experiment [2] is 25.1 nM.

`O=C(Nc1cn2cc(-c3csc(C(=O)N(CCCO)CC(F)(F)F)c3)ccc2n1)C1CC1` [Example 119, 4-(2-(cyclopropanecarboxamido)imidazo[1,2-a]pyridin-6-yl)-N-(3-hydroxypropyl)-N-(2,2,2-trifluoroethyl)thiophene-2-carboxamide]: the EC50 in experiment [1] is 331 nM. For the same compound, the IC50 in experiment [2] was 10 nM.

As to `O=C(NCC(F)(F)F)c1cc(-c2ccc3nc(NC(=O)C4CC4)cn3n2)cs1` [Example 44, 4-(2-(cyclopropanecarboxamido)imidazo[1,2-b]pyridazin-6-yl)-N-(2,2,2-trifluoroethyl)thiophene-2-carboxamide], the EC50 in experiment [1] was 214 nM. Further, in experiment [2], the IC50 is 3.98 nM.

Consider `O=C(NC1(C(F)(F)F)CC1)c1cc(-c2ccc3nc(NC(=O)C4CC4)cn3c2)cs1` [Example 118, 4-(2-(cyclopropanecarboxamido)imidazo[1,2-a]pyridin-6-yl)-N-(1-(trifluoromethyl)cyclopropyl)thiophene-2-carboxamide], for which the EC50 in experiment [1] was 676 nM. For the same compound, the IC50 in experiment [2] is 31.6 nM.

On to `O=C(N[C@@H]1CCOC1)c1cc(-c2ccc3nc(NC(=O)C4CC4)cn3c2)cs1` [Example 71, (R)-4-(2-(cyclopropanecarboxamido)imidazo[1,2-a]pyridin-6-yl)-N-(tetrahydrofuran-3-yl)thiophene-2-carboxamide], for which, in experiment [1], the EC50 was 2400 nM. Moreover, the IC50 in experiment [2] was 20 nM.

As for `Cc1sc(C(=O)NCC(F)(F)F)cc1-c1ccc2nc(NC(=O)C3CC3)cn2n1` [Example 23, 4-(2-(cyclopropanecarboxamido)imidazo[1,2-b]pyridazin-6-yl)-5-methyl-N-(2,2,2-trifluoroethyl)thiophene-2-carboxamide], the EC50 in experiment [1] was 5370 nM. Moreover, in experiment [2], the IC50 was 79.4 nM.

As for `O=C(NCC(F)F)c1cc(-c2ccc3nc(NC(=O)C4CC4)cn3c2)cs1` [Example 55, 4-(2-(cyclopropanecarboxamido)imidazo[1,2-a]pyridin-6-yl)-N-(2,2-difluoroethyl)thiophene-2-carboxamide], the EC50 in experiment [1] is 275 nM. Further, the IC50 in experiment [2] is 6.31 nM.

Turning to `COCCN(CC(F)(F)F)C(=O)c1cc(-c2ccc3nc(NC(=O)C4CC4)cn3c2)cs1` [Example 83, 4-(2-(cyclopropanecarboxamido)imidazo[1,2-a]pyridin-6-yl)-N-(2-methoxyethyl)-N-(2,2,2-trifluoroethyl)thiophene-2-carboxamide], in experiment [1], the EC50 was 646 nM. For the same compound, in experiment [2], the IC50 is 20 nM.
